Results published in patent US7462599B2, “Use of effectors of glutaminyl and glutamate cyclases” (Probiodrug AG, priority 2003, dated 2008).
Several values for one entry are separate records, joined by “and”; a condition that tells them apart may be missing. Equal entries are not always repeated. Where two headings read alike, the source gives them in different places. Blank lines part the entries; values can stand above or below the compound they belong to. Bridge positions count the residues as written; N and C are the ends. Square brackets hold non-standard residues; d marks the D form. Ends that are not written are not given here. Peptide text beside a SMILES is read from it. β3hQ = NC(=O)CC[C@H](N)CC(=O)O

Key:
QC [1] = biological target: T1, QC (Homo sapiens, UniProt Q16769); assay: Continuous spectrophotometric assay of substrate conversion, human QC;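 as to all read-outs here: initial rates read at 30 °C in a microplate reader, with activity quantified against an ammonia calibration curve under the same assay conditions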; type: biochemical; parameters: The cDNA of the mature QC starting with codon 38 was fused in frame with the plasmid encoded 6× histidine tag; 6x histidine tag; made in house; host or cells: Pichia pastoris X33 (pPICZαB); also E. coli M15 (pQE-31); conditions: for Ki*: for substrate inhibition; for Ki* / Ki: n.i. = no inhibition
T1 sequence (Q16769 29-361): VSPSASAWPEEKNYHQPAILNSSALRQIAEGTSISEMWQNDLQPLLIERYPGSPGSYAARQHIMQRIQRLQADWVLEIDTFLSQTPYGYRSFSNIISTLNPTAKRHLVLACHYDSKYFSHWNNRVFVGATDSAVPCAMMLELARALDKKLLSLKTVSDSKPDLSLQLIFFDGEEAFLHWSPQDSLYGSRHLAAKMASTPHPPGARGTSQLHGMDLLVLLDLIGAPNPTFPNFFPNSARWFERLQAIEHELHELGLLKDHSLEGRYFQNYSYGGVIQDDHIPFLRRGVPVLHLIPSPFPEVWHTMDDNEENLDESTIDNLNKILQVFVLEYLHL
Protocol: The initial velocities were evaluated and the enzymatic activity was determined from a standard curve of ammonia under assay conditions. All samples were measured at 30° C., using either the [sequence]luor Plus or the Sunrise (both from TECAN) reader for microplates. Kinetic data was evaluated using GraFit software.

QC [2] = biological target: T1, QC; assay: Enzyme inactivation/reactivation of human QC; type: biochemical; parameters: The cDNA of the mature QC starting with codon 38 was fused in frame with the plasmid encoded 6× histidine tag; 6x histidine tag; made in house; host or cells: Pichia pastoris X33 (pPICZαB); also E. coli M15 (pQE-31)
[3] = 0.05 M Tris-HCl, pH 8.0, 0.5 M KCl
[4] = recombinant human QC, buffer containing 1% DMSO

kcat (QC [1]; Table 7, substrate length): 40.1 ± 0.9 s⁻¹
Compound: C[C@H](NC(=O)[C@@H](N)CCC(N)=O)C(N)=O [H-Gln-Ala-NH2] (H-Gln-Ala-NH2)

Km (QC [1]; Table 1): 53 ± 3 µM
kcat (QC [1]; Table 1): 69.2 ± 1.1 s⁻¹
Compound: [Gln^1]-GnRH: GnRH with N-terminal glutamine: QHWSYGL RP(G) amide

restoration of QC activity after inactivation (QC [2]; metal ion incubation in presence of 0.5 mM EDTA): Near-total restoration
Compound: O=S(=O)([O-])[O-].[Zn+2] [ZnSO4]

Km (QC [1]; 0.05 M Tris-HCl, pH 8.0): 442 ± 30 µM
kcat (QC [1]; 0.05 M Tris-HCl, pH 8.0): 12.8 ± 0.3 s⁻¹
kcat (QC [1]; [3]): 12.2 ± 0.1 s⁻¹
Ki (QC [1]; [3]): n.i.
Ki (QC [1]; 0.05 M Tris-HCl, pH 8.0): n.i.
Ki* (QC [1]; Table 6): n.i.
kcat (QC [1]; Table 6, n.r. = not reactive): 12.8 ± 0.5 s⁻¹
Compound: NC(=O)CC[C@H](N)C(N)=O [H-Gln-NH2]

Km (QC [1]; [4]): 162 ± 12 µM
kcat (QC [1]; [4]): 62 ± 3 s⁻¹
Compound: QFRHDSGYEVHHQKLVFFA-NH2 [[Gln^3]Aβ3-21a]

Ki* (QC [1]; Table 6): n.i.
Km (QC [1]; Table 6, n.r. = not reactive): 1240 ± 74 µM
kcat (QC [1]; Table 6, n.r. = not reactive): 6.7 ± 0.2 s⁻¹
Compound: CC(C)(C)OC(=O)C(N)CCC(N)=O (stereo not drawn) [H-Gln-OtBu]

Km (QC [1]): 240 ± 14 µM
kcat (turnover number) (QC [1]): 22.8 ± 0.6 s⁻¹
Compound: H-Gln-cyclo(Nε-Lys-Arg-Pro-Ala-Gly-Phe) (H-QKRPAGF; lactam 2-C; SMILES C[C@@H]1NC(=O)[C@@H]2CCCN2C(=O)[C@H](CCCNC(=N)N)NC(=O)[C@@H](NC(=O)[C@@H](N)CCC(N)=O)CCCCNC(=O)[C@H](Cc2ccccc2)NC(=O)CNC1=O)

The remaining lines, values behind:

Compound: Cc1cc(=O)oc2cc(NC(=O)[C@@H](N)CCC(N)=O)ccc12 [H-Gln-AMC]
Km (QC [1]; Table 6, n.r. = not reactive): 54 ± 2 µM
kcat (QC [1]; Table 6, n.r. = not reactive): 5.3 ± 0.1 s⁻¹

Compound: NC(=O)CC[C@H](N)C(=O)N[C@@H](Cc1ccc(O)cc1)C(=O)O [H-Gln-Tyr-OH] (H-Gln-Tyr-OH)
Km (QC [1]): 211 ± 5 µM
Ki* (QC [1]; Table 6): n.i.
kcat (QC [1]; Table 6, n.r. = not reactive): 94 ± 1 s⁻¹

Compound: NC(=O)CC[C@H](N)C(=O)N[C@@H](CCC(=O)O)C(=O)O [H-Gln-Glu-OH] (H-Gln-Glu-OH)
kcat (QC [1]; 0.05 M Tris-HCl, pH 8.0): 21.4 ± 0.3 s⁻¹
kcat (QC [1]; [3]): 18.9 ± 0.5 s⁻¹
Ki (QC [1]; [3]): n.i.
Ki (QC [1]; 0.05 M Tris-HCl, pH 8.0): n.i.
Ki* (QC [1]; Table 6): n.i.
kcat (QC [1]; Table 6, n.r. = not reactive): 24.7 ± 0.2 s⁻¹
Km (QC [1]; pH 8): 373 µM and 607 µM

Compound: NC(=O)CC[C@H](N)C(=O)O [H-Gln-OH]
KM (QC [1]; Table 6, n.r. = not reactive): n.r.
kcat (QC [1]; Table 6, n.r. = not reactive): n.r.

Compound: C[C@H](NC(=O)[C@H](C)NC(=O)[C@@H](N)CCC(N)=O)C(N)=O [H-Gln-Ala-Ala-NH2] (H-Gln-Ala-Ala-NH2)
kcat (QC [1]; Table 7, substrate length): 76.3 ± 0.7 s⁻¹

Compound: C[C@H](NC(=O)[C@@H](N)CCC(N)=O)C(=O)O [H-Gln-Ala-OH] (H-Gln-Ala-OH)
Km (QC [1]): 232 ± 5 µM
kcat (QC [1]; 0.05 M Tris-HCl, pH 8.0): 54.4 ± 0.5 s⁻¹
kcat (QC [1]; [3]): 47.6 ± 0.6 s⁻¹
Ki (QC [1]; [3]): n.i.
Ki (QC [1]; 0.05 M Tris-HCl, pH 8.0): n.i.
Ki* (QC [1]; Table 6): n.i.
kcat (QC [1]; Table 6, n.r. = not reactive): 57.2 ± 0.4 s⁻¹
Km (QC [1]; pH 8): 269 µM and 357 µM

Compound: H-QAAAA-NH2 [H-Gln-Ala-Ala-Ala-Ala-NH2]
Km (QC [1]; Table 7, substrate length): 65 ± 3 µM
kcat (QC [1]; Table 7, substrate length): 60.5 ± 0.7 s⁻¹

Compound: O=C(O)c1cccc(C(=O)O)n1 [dipicolinic acid]
inactivation of human QC after extensive dialysis (QC [2]): almost completely inactivated
inhibition of human QC catalyzed substrate cyclization by chelators (QC [2]): abolished

Compound: CC(C)[C@H](NC(=O)[C@@H](N)CCC(N)=O)C(=O)O [H-Gln-Val-OH] (H-Gln-Val-OH)
Km (QC [1]): 196 ± 5 µM
Ki* (QC [1]; Table 6): n.i.
kcat (QC [1]; Table 6, n.r. = not reactive): 17.2 ± 0.1 s⁻¹

Compound: H-QAASAA-NH2 [H-Gln-Ala-Ala-Ser-Ala-Ala-NH2]
Km (QC [1]; Table 7, substrate length): 79 ± 6 µM
kcat (QC [1]; Table 7, substrate length): 55.3 ± 1.6 s⁻¹

Compound: H-βhomoGln-Phe-Lys-Arg-Leu-Ala-NH2 (H-[β3hQ]FKRLA-NH2; SMILES CC(C)C[C@H](NC(=O)[C@H](CCCNC(=N)N)NC(=O)[C@H](CCCCN)NC(=O)[C@H](Cc1ccccc1)NC(=O)C[C@@H](N)CCC(N)=O)C(=O)N[C@@H](C)C(N)=O)
Km (QC [1]): 2500 ± 200 µM
fold reduced efficiency of cyclization compared to peptides of similar size with N-terminal glutaminyl residue (QC [1]): approximately 1000 fold
kcat (turnover number) (QC [1]): 3.5 ± 0.1 s⁻¹

Compound: Oc1cccc2cccnc12 [8-hydroxyquinoline]
inhibition of human QC catalyzed substrate cyclization by chelators (QC [2]): abolished
